Measurements from the Kinase Knowledgebase extract (Sharma et al. 2016).

Key:
Assay in all cases: Enzyme Assay
PIK3CA (human) = PIK3CA (human) (UniProt P42336)
PIK3CB (Human) = PIK3CB (Human) (UniProt P42338)
PIK3CD (Human) = PIK3CD (Human) (UniProt O00329)
Sequence of PIK3CD (Human) (O00329 whole entry, looked up): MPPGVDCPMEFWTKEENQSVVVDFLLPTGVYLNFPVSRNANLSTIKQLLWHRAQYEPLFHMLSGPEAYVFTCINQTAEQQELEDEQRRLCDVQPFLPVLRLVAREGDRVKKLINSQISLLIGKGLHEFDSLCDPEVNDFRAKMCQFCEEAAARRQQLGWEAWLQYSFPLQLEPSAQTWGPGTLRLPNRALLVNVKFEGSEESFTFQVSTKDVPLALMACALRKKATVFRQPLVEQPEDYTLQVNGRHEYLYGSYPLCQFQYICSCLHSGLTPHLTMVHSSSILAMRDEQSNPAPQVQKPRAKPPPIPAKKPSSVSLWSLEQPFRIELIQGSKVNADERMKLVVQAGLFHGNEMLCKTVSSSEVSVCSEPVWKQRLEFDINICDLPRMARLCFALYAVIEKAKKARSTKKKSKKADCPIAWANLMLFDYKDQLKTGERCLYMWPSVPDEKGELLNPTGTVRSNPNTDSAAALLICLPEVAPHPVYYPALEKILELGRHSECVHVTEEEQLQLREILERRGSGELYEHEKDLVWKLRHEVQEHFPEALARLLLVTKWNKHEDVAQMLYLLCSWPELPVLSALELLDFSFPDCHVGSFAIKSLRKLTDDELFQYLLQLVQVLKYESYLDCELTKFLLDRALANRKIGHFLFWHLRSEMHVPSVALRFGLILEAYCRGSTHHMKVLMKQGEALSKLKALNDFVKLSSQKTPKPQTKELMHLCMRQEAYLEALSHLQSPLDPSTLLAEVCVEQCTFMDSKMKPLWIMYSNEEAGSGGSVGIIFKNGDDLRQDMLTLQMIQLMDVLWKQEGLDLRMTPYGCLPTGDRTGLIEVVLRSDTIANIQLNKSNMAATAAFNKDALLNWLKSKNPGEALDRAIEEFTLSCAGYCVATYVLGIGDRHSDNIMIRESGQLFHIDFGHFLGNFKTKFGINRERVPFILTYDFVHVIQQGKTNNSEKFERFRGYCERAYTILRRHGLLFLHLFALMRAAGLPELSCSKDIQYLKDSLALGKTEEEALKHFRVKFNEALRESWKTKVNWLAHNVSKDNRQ

Sequence of PIK3CB (Human) (P42338 whole entry, looked up): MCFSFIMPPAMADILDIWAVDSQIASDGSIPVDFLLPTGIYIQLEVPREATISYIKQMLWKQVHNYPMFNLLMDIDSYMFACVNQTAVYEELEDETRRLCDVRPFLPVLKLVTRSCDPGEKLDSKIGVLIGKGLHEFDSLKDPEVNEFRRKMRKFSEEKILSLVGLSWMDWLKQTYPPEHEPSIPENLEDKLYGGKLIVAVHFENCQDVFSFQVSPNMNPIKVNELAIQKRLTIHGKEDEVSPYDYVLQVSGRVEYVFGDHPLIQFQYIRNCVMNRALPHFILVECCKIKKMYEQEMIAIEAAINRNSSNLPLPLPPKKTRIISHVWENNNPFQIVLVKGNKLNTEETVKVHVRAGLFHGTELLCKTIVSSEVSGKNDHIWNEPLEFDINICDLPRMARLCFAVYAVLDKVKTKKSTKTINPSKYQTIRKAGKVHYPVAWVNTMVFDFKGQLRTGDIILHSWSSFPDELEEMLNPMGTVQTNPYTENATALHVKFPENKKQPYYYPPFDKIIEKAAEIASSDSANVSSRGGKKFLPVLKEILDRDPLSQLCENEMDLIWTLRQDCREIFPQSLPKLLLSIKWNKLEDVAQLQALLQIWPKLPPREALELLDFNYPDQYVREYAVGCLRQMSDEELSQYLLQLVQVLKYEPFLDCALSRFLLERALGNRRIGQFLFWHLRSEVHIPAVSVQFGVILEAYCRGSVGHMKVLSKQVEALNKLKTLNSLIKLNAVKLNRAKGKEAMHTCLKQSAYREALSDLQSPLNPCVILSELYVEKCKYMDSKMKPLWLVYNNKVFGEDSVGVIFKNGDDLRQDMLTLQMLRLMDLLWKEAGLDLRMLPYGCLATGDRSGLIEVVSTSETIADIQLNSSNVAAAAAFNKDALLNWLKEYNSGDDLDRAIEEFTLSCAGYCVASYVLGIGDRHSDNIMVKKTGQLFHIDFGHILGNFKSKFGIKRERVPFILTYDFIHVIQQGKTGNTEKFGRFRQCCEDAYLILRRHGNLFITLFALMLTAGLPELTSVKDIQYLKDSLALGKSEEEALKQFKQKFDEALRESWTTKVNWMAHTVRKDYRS
Sequence of PIK3CA (human) (P42336 whole entry, looked up): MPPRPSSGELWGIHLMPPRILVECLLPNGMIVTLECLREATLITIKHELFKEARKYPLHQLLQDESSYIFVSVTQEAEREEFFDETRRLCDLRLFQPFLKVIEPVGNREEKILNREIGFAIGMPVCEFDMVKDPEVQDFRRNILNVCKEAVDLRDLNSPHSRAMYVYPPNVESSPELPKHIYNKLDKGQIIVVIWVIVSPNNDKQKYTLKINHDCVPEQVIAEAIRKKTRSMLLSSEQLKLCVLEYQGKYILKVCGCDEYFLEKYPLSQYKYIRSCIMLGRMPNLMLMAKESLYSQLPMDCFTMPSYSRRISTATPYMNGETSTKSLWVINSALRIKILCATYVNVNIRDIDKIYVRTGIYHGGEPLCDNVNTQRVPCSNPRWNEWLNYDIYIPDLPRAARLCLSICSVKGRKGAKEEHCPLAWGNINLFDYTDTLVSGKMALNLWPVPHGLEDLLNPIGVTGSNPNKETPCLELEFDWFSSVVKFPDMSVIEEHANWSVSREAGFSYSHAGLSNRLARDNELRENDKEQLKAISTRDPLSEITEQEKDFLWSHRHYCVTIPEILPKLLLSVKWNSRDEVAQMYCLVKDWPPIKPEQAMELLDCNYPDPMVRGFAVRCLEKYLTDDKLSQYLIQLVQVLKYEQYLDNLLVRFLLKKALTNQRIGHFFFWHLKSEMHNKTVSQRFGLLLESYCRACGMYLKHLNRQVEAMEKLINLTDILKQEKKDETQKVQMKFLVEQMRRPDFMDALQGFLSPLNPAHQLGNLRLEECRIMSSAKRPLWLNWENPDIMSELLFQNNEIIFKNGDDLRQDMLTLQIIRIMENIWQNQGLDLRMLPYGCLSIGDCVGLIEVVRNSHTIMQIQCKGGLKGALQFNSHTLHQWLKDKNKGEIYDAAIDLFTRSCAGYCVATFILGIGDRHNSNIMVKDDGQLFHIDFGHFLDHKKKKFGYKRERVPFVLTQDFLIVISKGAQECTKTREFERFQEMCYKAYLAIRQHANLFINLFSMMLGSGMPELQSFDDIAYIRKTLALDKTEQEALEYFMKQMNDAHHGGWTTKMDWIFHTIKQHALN

| Structure (SMILES) | IC50 (PIK3CA (human)) | IC50 (PIK3CB (Human)) | IC50 (PIK3CD (Human)) |
| --- | --- | --- | --- |
| Cc1cccc2cc(Cn3nc(-c4ccc5sc(N)nc5c4)c4c(N)ncnc43)n(-c3ccccc3)c(=O)c12 | 100 to 1000 nM | 100 to 1000 nM | < 100 nM |
| Cc1ccccc1-n1c(Cn2nc(-c3ccc4sc(N)nc4c3)c3c(N)ncnc32)cc2cccc(C)c2c1=O | 100 to 1000 nM | 100 to 1000 nM | < 100 nM |
| Cc1cccc2cc([C@H](C)Nc3nc(N)nc4[nH]cnc34)n(-c3ccccc3)c(=O)c12 | 100 to 1000 nM | < 100 nM | < 100 nM |
| Cc1cccc2cc(Cn3nc(Br)c4c(N)ncnc43)n(-c3ccccc3F)c(=O)c12 | > 10000 nM | > 10000 nM | 100 to 1000 nM |
| CC(=O)Nc1nc2ccc(-c3nn(Cc4cc5cccc(C)c5c(=O)n4-c4ccccc4C)c4ncnc(N)c34)cc2o1 | > 10000 nM | > 10000 nM | < 100 nM |
| Cc1cccc2cc([C@H](C)Nc3ncnc4[nH]cc(F)c34)n(C3CC3)c(=O)c12 | 100 to 1000 nM | < 100 nM | < 100 nM |
| Cc1cccc2cc(Cn3nc(-c4ccc(O)c(F)c4)c4c(N)ncnc43)n(-c3ccccc3F)c(=O)c12 | > 10000 nM | > 10000 nM | 100 to 1000 nM |
| Cc1cccc2cc(C(C)Nc3nc(N)nc4[nH]cnc34)n(-c3ccccc3)c(=O)c12 (stereo not given) | 100 to 1000 nM | < 100 nM | < 100 nM |
| COC(=O)c1nn(Cc2cc3cccc(C)c3c(=O)n2-c2ccccc2C)c2ncnc(N)c12 | > 10000 nM | > 10000 nM | 100 to 1000 nM |
| Cc1ccccc1-n1c(Cn2nc(CCC(N)=O)c3c(N)ncnc32)cc2cccc(C)c2c1=O | > 10000 nM | > 10000 nM | 100 to 1000 nM |
| Cc1cccc2cc([C@H](C)Nc3ncnc4[nH]cc(C#N)c34)n(-c3ccccc3)c(=O)c12 | 100 to 1000 nM | < 100 nM | < 100 nM |
| Cc1cccc2cc([C@H](C)Nc3ncnc4[nH]cnc34)n(-c3ccc(F)cc3)c(=O)c12 | 100 to 1000 nM | < 100 nM | < 100 nM |
| Cc1cccc2cc([C@H](C)Nc3ncnc4[nH]cc(Br)c34)n(-c3ccccc3)c(=O)c12 | 100 to 1000 nM | < 100 nM | < 100 nM |
| Cc1ccccc1-n1c(Cn2nc(-c3ccn[nH]3)c3c(N)ncnc32)cc2cccc(C)c2c1=O | > 10000 nM | > 10000 nM | 100 to 1000 nM |
| Cc1cccc2cc(Cn3nc(I)c4c(N)ncnc43)n(C3CCCCC3)c(=O)c12 | > 10000 nM | > 10000 nM | 100 to 1000 nM |
| Cc1cccc2cc(C(C)Nc3ncnc4[nH]cnc34)n(C3CCN(C)CC3)c(=O)c12 (stereo not given) | > 10000 nM | 100 to 1000 nM | < 100 nM |
| Cc1cccc2cc([C@H](C)Nc3ncnc4[nH]cc(Cl)c34)n(-c3ccccc3)c(=O)c12 | 100 to 1000 nM | < 100 nM | < 100 nM |
| Cc1cccc2cc(Cn3nc(C4=CCOCC4)c4c(N)ncnc43)n(-c3ccccc3)c(=O)c12 | > 10000 nM | > 10000 nM | > 10000 nM |
| Cc1cccc2cc([C@@H](C)Nc3ncnc4[nH]cnc34)n(C3CCC3)c(=O)c12 | > 10000 nM | > 10000 nM | > 10000 nM |
| Cc1cccc2cc(Cn3nc(I)c4c(N)ncnc43)n(C)c(=O)c12 | > 10000 nM | > 10000 nM | 100 to 1000 nM |
| Cc1cccc2cc([C@H](C)Nc3nc(Cl)ncc3Cl)n(-c3ccccc3)c(=O)c12 | > 10000 nM | > 10000 nM | 100 to 1000 nM |
| Cc1cccc2cc([C@H](C)Nc3ncnc4[nH]cnc34)n(-c3cccc(F)c3)c(=O)c12 | > 10000 nM | 100 to 1000 nM | < 100 nM |
| Cc1cccc2cc([C@H](C)Nc3ncnc4[nH]c(Cl)nc34)n(-c3ccccc3)c(=O)c12 | > 10000 nM | > 10000 nM | > 10000 nM |
| Cc1cccc2cc([C@H](C)Nc3nc(N)ncc3C(N)=O)n(C3CC3)c(=O)c12 | > 10000 nM | > 10000 nM | > 10000 nM |
| Cc1cccc2cc([C@H](C)Nc3cc(N)nc(Cl)n3)n(-c3ccccc3)c(=O)c12 | > 10000 nM | > 10000 nM | 100 to 1000 nM |
